Experimental data taken from patent publication US9682960B2 (priority 2013, dated 2017).

Legend:
[1] = target: Human Androgen Receptor (Homo sapiens (Human), UniProt P10275); assay: Androgen receptor assay: [3H]R1881 displacement, cytosol of HEK-293 cells transfected with hAR (hydroxylapatite assay); type: binding; conditions: relative binding affinity, R1881 = 100; […]
[2] = tested on: Shionogi mouse mammary carcinoma cells; assay: In vitro androgenic/antiandrogenic activity: proliferation of Shionogi cells with or without DHT; type: cell-based; conditions: Mus musculus, read-out: Shionogi Antiandrogenic Activity IC50, DHT (0.3 nM)-stimulated cell number
[3] = Oral absorption, Experiment 1: plasma levels after single oral 20 mg EM-9150/kg in intact male rats (LC-MS/MS); type: in vivo, rat; conditions: metabolite after oral EM-9150
Procedure: Intact 6 week-old male rats (Crl:CD(SD)) weighing 150-205 g were obtained from Charles-River Canada Inc. (St-Constant, Quebec, Canada) and housed up to 3 per cage in plastic bins in a temperature (19° C. to 25° C.)- and light (12 h light/day)-controlled environment. They were acclimatized to laboratory conditions for 2 weeks prior to the pharmacokinetic (PK) study. The rats were fed rodent chow (PMI Nutrition International Certified Rodent Chow No. 5CR4 (14% protein)) and tap water ad libitum. Animals were weighing 165-200 g at the time of dosing.
Blood samples (˜0.4 mL/timepoint/rat) were collected by jugular venipuncture at 0.5, 1, 2, 3.5, 7 and 24 h post-dosing from 3 animals/timepoint. Blood samples were put into tubes containing EDTA(K3) as anticoagulant and centrifuged at 4° C. for 10 min at 2700 rpm. The resulting plasma was separated and transferred to 2 polypropylene tubes, frozen immediately over dry ice and kept in a freezer set to maintain −80° C. until analysis.

[4] = tested on: castrated (CX) immature male rats; assay: Systemic androgenic (agonistic) activity in orchidectomized (CX) immature male rats; type: in vivo, rat; conditions: 0.1 mg/rat/po, 7 days
[5] = tested on: Androgen Receptor; assay: Overall classification (antiandrogen / SARM) in the models studied

Sequence of Human Androgen Receptor (P10275 whole entry): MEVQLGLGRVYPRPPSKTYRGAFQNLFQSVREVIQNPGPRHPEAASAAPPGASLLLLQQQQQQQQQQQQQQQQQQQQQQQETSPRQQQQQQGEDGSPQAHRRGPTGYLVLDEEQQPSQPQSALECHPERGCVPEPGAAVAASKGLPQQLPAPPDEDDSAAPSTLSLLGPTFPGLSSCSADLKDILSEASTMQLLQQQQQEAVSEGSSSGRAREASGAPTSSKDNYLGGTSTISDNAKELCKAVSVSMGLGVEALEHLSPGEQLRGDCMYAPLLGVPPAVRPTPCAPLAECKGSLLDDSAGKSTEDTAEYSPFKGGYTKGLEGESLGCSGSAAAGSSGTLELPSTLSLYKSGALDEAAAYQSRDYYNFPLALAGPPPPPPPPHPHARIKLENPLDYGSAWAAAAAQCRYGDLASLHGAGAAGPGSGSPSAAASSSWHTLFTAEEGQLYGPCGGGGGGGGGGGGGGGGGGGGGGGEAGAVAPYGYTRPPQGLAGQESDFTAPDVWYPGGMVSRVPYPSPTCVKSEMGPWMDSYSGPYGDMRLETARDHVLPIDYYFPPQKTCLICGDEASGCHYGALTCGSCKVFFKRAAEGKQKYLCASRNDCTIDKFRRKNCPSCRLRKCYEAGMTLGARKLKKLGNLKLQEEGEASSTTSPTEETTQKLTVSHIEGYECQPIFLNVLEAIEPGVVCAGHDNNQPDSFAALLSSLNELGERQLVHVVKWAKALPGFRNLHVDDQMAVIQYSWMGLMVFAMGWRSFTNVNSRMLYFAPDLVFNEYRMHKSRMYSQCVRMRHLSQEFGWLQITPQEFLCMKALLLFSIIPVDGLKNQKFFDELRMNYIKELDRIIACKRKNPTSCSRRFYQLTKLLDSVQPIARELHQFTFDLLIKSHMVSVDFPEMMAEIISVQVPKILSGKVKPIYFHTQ

CC1(C)NC(=O)N(c2ccc(C#N)c(Cl)c2)C1=O [EM-9260]
Human Androgen Receptor Binding RBA (%) R1881 = 100 [1]: ~0.1%
IC50 [2]: ~100 nM
share of the plasma exposure of EM-9150 [3]: approximately 90%
CX Agonistic activity % Stimulation Bulbo ([4]; bulbocavernosus muscles weight): 4%
CX Agonistic activity % Stimulation SV ([4]; seminal vesicles weight): 2%
CX Agonistic activity % Stimulation Prostate ([4]; ventral prostate weight): 0%
classification as antiandrogen or SARM (in words) [5]: antiandrogens
